Test results: US20140271606A1, “METHODS OF USING ADENOSINE RECEPTOR ANTAGONISTS FOR TREATING BLEEDING DISORDERS” (Bayer HealthCare LLC, priority 2013, published 2014)

Assays:
Hemophilia A mice = assay: Tail cut blood loss in Hemophilia A mice; format: in vivo; conditions: 30 min bleeding
Protocol: In this Example, the effect of administering an adenosine receptor antagonist on reduction in blood loss in mice with Hemophilia A and Hemophilia B mice was analyzed. Male Hemophilia A or Hemophilia B mice, approximately eight to nine weeks of age and weighing, on average, approximately 25 grams, were used in this Example. The mice were anesthetized with isoflurane and the tails were placed in approximately 37-38° C. warmed 15-ml plastic tubes including 0.9% (by weight) saline for 10 minutes. The tails were then cut at 4 mm from the tip by scalpel and immediately placed back into separate pre-warmed (37-38° C.) 15-ml plastic tubes containing 10 ml of 0.9% (by weight) saline. Each mouse was allowed to bleed freely for 30 minutes. The adenosine 2a and 2b receptor antagonist, 4-(2-[7-Amino-2-(2-furyl)[1,2,4]triazolo[2,3-a][1,3,5]triazin-5-ylamino]ethyl)phenol (commercially available as ZM241385 from Tocris Bioscience, United Kingdom), was used in this Example. In a first sample group, ZM241385 was dissolved in 100% DMSO. In a second sample group, ZM241385 was dissolved in PEG400/ethanol/water (40/10/50 v/v/v). In a third sample group, ZM241385 was dissolved in PEG400/water (60/40 v/v). […] Blood loss was quantified gravimetrically by weighing the tubes before and after blood was collected.

Hemophilia B mice = assay: Tail cut blood loss in Hemophilia B mice; format: in vivo; conditions: 100 mg/kg intravenous in PEG400/water 60/40, 5 min prior to tail cut, 30 min bleeding, vs excipient (FIG. 4)
Protocol: In this Example, the effect of administering an adenosine receptor antagonist on reduction in blood loss in mice with Hemophilia A and Hemophilia B mice was analyzed. Male Hemophilia A or Hemophilia B mice, approximately eight to nine weeks of age and weighing, on average, approximately 25 grams, were used in this Example. The mice were anesthetized with isoflurane and the tails were placed in approximately 37-38° C. warmed 15-ml plastic tubes including 0.9% (by weight) saline for 10 minutes. The tails were then cut at 4 mm from the tip by scalpel and immediately placed back into separate pre-warmed (37-38° C.) 15-ml plastic tubes containing 10 ml of 0.9% (by weight) saline. Each mouse was allowed to bleed freely for 30 minutes. Nineteen mice having Hemophilia B were injected with the third sample of adenosine receptor antagonist solution by intravenous injection in the amount of 100 mg/kg ZM241385 five minutes prior to the tail cut. Nineteen control mice were treated with 100 μl of PEG400/water (60/40 v/v) without any adenosine receptor antagonist prior to the tail cut to serve as an untreated control. Blood loss was quantified gravimetrically by weighing the tubes before and after blood was collected.

Measured: blood loss

Nc1nc(NCCc2ccc(O)cc2)nc2nc(-c3ccco3)nn12 [ZM241385, 4-(2-[7-Amino-2-(2-furyl)[1,2,4]triazolo[2,3-a][1,3,5]triazin-5-ylamino]ethyl)phenol]
reduced blood loss: Hemophilia A mice; 100 mg/kg intraperitoneal in 100% DMSO, 30 min prior to tail cut, vs excipient (FIG. 2) | Hemophilia A mice; 300 mg/kg intraperitoneal in PEG400/ethanol/water 40/10/50, 30 min prior to tail cut, vs excipient (FIG. 3) | Hemophilia B mice
